The source of these data is patent publication EP4001279A1, “NOVEL SPIROPYRROLIDINE DERIVED ANTIVIRAL AGENTS” (Enanta Pharmaceuticals, Inc., priority 2020, dated 2022).

SMILES strings stand for the structures. pEC50: −log10 of the molar value.

The test has as its system 229E human corona virus (hCoV). Briefly: 229E live virus assay (CPE, ATPlite readout in MRC-5 cells). Conditions: MOI 0.05, ATPlite readout, run in duplicate. The test is classed as cell-based, hCoV-229E.
Setting [1] is: Human coronavirus 229E, MRC5, hCoV-229E live virus.

As to `CC(C)C[C@@H](C(=O)N1C[C@]2(C[C@H]1C#N)C(=O)Nc1ccccc12)N(C)C(=O)c1cc(OC2CC2)c2nc(C3CC3)sc2c1` [Example 317], the pEC50 under setting [1] was 6.00 to 7.00.

In the case of `CC(C)C[C@@H](C(=O)N1C[C@]2(C[C@H]1C#N)C(=O)Nc1ccccc12)N(C)C(=O)c1cc(F)c2nc(C3CC3)cn2c1` [Example 318], under setting [1], the pEC50 is greater than 7.00.

As for `COc1cc(C(=O)N(C)[C@@H](CC(C)C)C(=O)N2C[C@]3(C[C@H]2C#N)C(=O)Nc2ccccc23)cc2cn(C3(C)CC3)nc12` [Example 319], the negative logarithm of the EC50 (pEC50) under setting [1] was greater than 7.00. Under setting [1], `COc1cc(C(=O)N(C)[C@@H](CC(C)C)C(=O)N2C[C@]3(C[C@H]2C#N)C(=O)Nc2ccccc23)cc2cn(C3CCC3)nc12` [Example 320] had a negative logarithm of the EC50 (pEC50) of 6.00 to 7.00. `Cc1ccc2cc(C(=O)N(C)[C@@H](CC(C)C)C(=O)N3C[C@]4(C[C@H]3C#N)C(=O)Nc3ccccc34)cc(OC3CC3)c2n1` [Example 321] showed a pEC50 under setting [1] of 6.00 to 7.00.

For `CC(C)C[C@@H](C(=O)N1C[C@]2(C[C@H]1C#N)C(=O)Nc1ccccc12)N(C)C(=O)c1cc(OC(F)(F)F)c2ncccc2c1` [Example 322], the pEC50 under setting [1] is greater than 7.00.

For the compound `Cc1cc2cc(C(=O)N(C)[C@@H](CC(C)C)C(=O)N3C[C@]4(C[C@H]3C#N)C(=O)Nc3ccccc34)cc(OC3CC3)c2nc1C` [Example 323], the negative logarithm of the EC50 (pEC50) under setting [1] was 6.00 to 7.00. `CC(C)C[C@@H](C(=O)N1C[C@]2(C[C@H]1C#N)C(=O)Nc1ccccc12)N(C)C(=O)c1cc(OC2CC2)c2ncc(C3CC3)cc2c1` [Example 324] had a pEC50 under setting [1] of 6.00 to 7.00. As for `Cc1cc(F)c(C(=O)N(C)[C@@H](CC(C)C)C(=O)N2C[C@]3(C[C@H]2C#N)C(=O)Nc2ccccc23)cc1-c1cnn(C2CC2)c1` [Example 342], the pEC50 under setting [1] is 6.00 to 7.00. Under setting [1], `CC(C)C[C@@H](C(=O)N1C[C@]2(C[C@H]1C#N)C(=O)Nc1ccccc12)N(C)C(=O)c1ccc(OC2CC2)c(-c2cccnc2)c1` [Example 343] had a pEC50 of 6.00 to 7.00. `CC(C)C[C@@H](C(=O)N1C[C@]2(C[C@H]1C#N)C(=O)Nc1ccccc12)N(C)C(=O)[C@H]1CCN(C(=O)OC(C)(C)C)C1` [Example 344]: the negative-log EC50 (pEC50) under setting [1] was 6.00 to 7.00.

The compound `CC(C)C[C@@H](C(=O)N1C[C@]2(C[C@H]1C#N)C(=O)Nc1ccccc12)N(C)C(=O)[C@@H]1CCN(C(=O)OC(C)(C)C)C1` [Example 345] had a pEC50 (hCoV-229E live virus) greater than 7.00.

`CC(C)C[C@@H](C(=O)N1C[C@]2(C[C@H]1C#N)C(=O)Nc1ccccc12)N(C)C(=O)[C@@H](c1cnn(C)c1)C(C)C` [Example 348] had a negative-log EC50 (pEC50) under setting [1] of 6.00 to 7.00. `CC(C)C[C@@H](C(=O)N1C[C@]2(C[C@H]1C#N)C(=O)Nc1ccccc12)N(C)C(=O)[C@H](c1cnn(C)c1)C(C)C` [Example 349] showed a pEC50 under setting [1] of 6.00 to 7.00. For the compound `CC(C)C[C@@H](C(=O)N1C[C@]2(C[C@H]1C#N)C(=O)Nc1ccccc12)N(C)C(=O)[C@@H](c1cn(C)nn1)C(C)C` [Example 350], the negative-log EC50 (pEC50) under setting [1] is 6.00 to 7.00. For the compound `CC(C)C[C@@H](C(=O)N1C[C@]2(C[C@H]1C#N)C(=O)Nc1ccccc12)N(C)C(=O)[C@H](c1cn(C)nn1)C(C)C` [Example 351], the negative-log EC50 (pEC50) under setting [1] was 6.00 to 7.00.

In the case of `CC(C)C[C@@H](C(=O)N1C[C@]2(C[C@H]1C#N)C(=O)Nc1ccccc12)N(C)C(=O)c1cnn(C(C)(C)C)c1` [Example 352], under setting [1], the pEC50 was greater than 7.00. As to `CC(C)C[C@@H](C(=O)N1C[C@]2(C[C@H]1C#N)C(=O)Nc1ccccc12)N(C)C(=O)c1cnn(-c2ccccc2C(F)(F)F)c1` [Example 353], the pEC50 under setting [1] was greater than 7.00. Under setting [1], `CC(C)C[C@@H](C(=O)N1C[C@]2(C[C@H]1C#N)C(=O)Nc1ccccc12)N(C)C(=O)c1nnc(C2CC2)o1` [Example 354] showed a pEC50 greater than 7.00.

`CC(C)C[C@@H](C(=O)N1C[C@]2(C[C@H]1C#N)C(=O)Nc1ccccc12)N(C)C(=O)c1nnc(-c2ccc(F)cc2)o1` [Example 355] showed a pEC50 under setting [1] greater than 7.00.

Regarding `CC(C)C[C@@H](C(=O)N1C[C@]2(C[C@H]1C#N)C(=O)Nc1ccccc12)N(C)C(=O)c1nnn(C(C)(C)C)n1` [Example 356], under setting [1], the negative logarithm of the EC50 (pEC50) was greater than 7.00. Regarding `COc1cccc2[nH]c(C(=O)N(C)[C@@H](COC(C)(C)C)C(=O)N3C[C@]4(C[C@H]3C#N)C(=O)Nc3ccccc34)cc12` [Example 370], under setting [1], the pEC50 is greater than 7.00. Take `CN(C(=O)c1cc2c(F)cc(F)cc2[nH]1)[C@@H](COC(C)(C)C)C(=O)N1C[C@]2(C[C@H]1C#N)C(=O)Nc1ccccc12` [Example 371]: the pEC50 under setting [1] was greater than 7.00. Regarding `C[C@@H](C(=O)N(C)[C@@H](CC(C)(C)C)C(=O)N1C[C@]2(C[C@H]1C#N)C(=O)Nc1ccccc12)c1cnn(C)c1` [Example 372], the pEC50 under setting [1] is greater than 7.00. Still for that read-out and setting: to `C[C@H](C(=O)N(C)[C@@H](CC(C)(C)C)C(=O)N1C[C@]2(C[C@H]1C#N)C(=O)Nc1ccccc12)c1cnn(C)c1` [Example 373] belongs 6.00 to 7.00; to `CN(C(=O)C(F)(F)F)[C@@H](CC(C)(C)C)C(=O)N1C[C@]2(C[C@H]1C#N)C(=O)Nc1ccccc12` [Example 374], 6.00 to 7.00; to `CN(C(=O)c1cc2c(OC3CC3)cccc2[nH]1)[C@@H](CC(C)(C)C)C(=O)N1C[C@]2(C[C@H]1C#N)C(=O)Nc1ccccc12` [Example 375], greater than 7.00.

As for `[2H]C([2H])([2H])N(C(=O)c1nc(-c2ccccc2)c[nH]1)[C@@H](CC(C)(C)C)C(=O)N1C[C@]2(C[C@H]1C#N)C(=O)Nc1ccccc12` [Example 376], the pEC50 under setting [1] is greater than 7.00. `[2H]C([2H])([2H])N(C(=O)c1cn(-c2ccc(Cl)cc2)nn1)[C@@H](CC(C)(C)C)C(=O)N1C[C@]2(C[C@H]1C#N)C(=O)Nc1ccccc12` [Example 377] gave a pEC50 under setting [1] greater than 7.00. Take `[2H]C([2H])([2H])N(C(=O)c1cn(C2CC2)nn1)[C@@H](CC(C)(C)C)C(=O)N1C[C@]2(C[C@H]1C#N)C(=O)Nc1ccccc12` [Example 378]: the negative logarithm of the EC50 (pEC50) under setting [1] was greater than 7.00. In turn, `[2H]C([2H])([2H])N(C(=O)c1cn(C2CCC2)nn1)[C@@H](CC(C)(C)C)C(=O)N1C[C@]2(C[C@H]1C#N)C(=O)Nc1ccccc12` [Example 379] showed a pEC50 under setting [1] greater than 7.00. As to `[2H]C([2H])([2H])N(C(=O)c1cn(CC(F)(F)F)nn1)[C@@H](CC(C)(C)C)C(=O)N1C[C@]2(C[C@H]1C#N)C(=O)Nc1ccccc12` [Example 380], the negative-log EC50 (pEC50) under setting [1] is greater than 7.00. On the same count and under the same terms, then `[2H]C([2H])([2H])N(C(=O)c1ccc2ncc(C(F)(F)F)cc2c1)[C@@H](CC(C)(C)C)C(=O)N1C[C@]2(C[C@H]1C#N)C(=O)Nc1ccccc12` [Example 381], with greater than 7.00. Under setting [1], `[2H]C([2H])([2H])N(C(=O)c1cc(OC(F)(F)F)c2ncccc2c1)[C@@H](CC(C)(C)C)C(=O)N1C[C@]2(C[C@H]1C#N)C(=O)Nc1ccccc12` [Example 382] gave a pEC50 greater than 7.00.

`[2H]C([2H])([2H])N(C(=O)c1cc(OC(F)F)c2ncccc2c1)[C@@H](CC(C)(C)C)C(=O)N1C[C@]2(C[C@H]1C#N)C(=O)Nc1ccccc12` [Example 383]: the negative logarithm of the EC50 (pEC50) under setting [1] is greater than 7.00. As to `CN(C(=O)c1cn(C(C)(C)C)nn1)[C@@H](CC1CC1)C(=O)N1C[C@]2(C[C@H]1C#N)C(=O)Nc1ccccc12` [Example 402], under setting [1], the negative-log EC50 (pEC50) is greater than 7.00. Compound `CN(C(=O)c1cc2c(F)cc(F)c(F)c2[nH]1)[C@@H](CCC(C)(C)C)C(=O)N1C[C@]2(C[C@H]1C#N)C(=O)Nc1ccccc12` [Example 412] had a pEC50 under setting [1] greater than 7.00. `CCCOC[C@@H](C(=O)N1C[C@]2(C[C@H]1C#N)C(=O)Nc1ccccc12)N(C)C(=O)c1cc2c(F)cc(F)cc2[nH]1` [Example 413]: the pEC50 under setting [1] was greater than 7.00. `CN(C(=O)[C@H](O)C(C)(C)C)[C@@H](CC1CC1)C(=O)N1C[C@]2(C[C@H]1C#N)C(=O)Nc1ccccc12` [Example 417] gave a pEC50 under setting [1] greater than 7.00. `CCCC[C@H](NC(=O)[C@@H](O)c1ccc(F)cc1)C(=O)N1C[C@]2(C[C@H]1C#N)C(=O)Nc1ccccc12` [Example 418] had a pEC50 under setting [1] of 6.00 to 7.00. On the same count and under the same terms, then `CCCC[C@H](NC(=O)[C@H](O)c1ccc(F)cc1)C(=O)N1C[C@]2(C[C@H]1C#N)C(=O)Nc1ccccc12` [Example 419], with 6.00 to 7.00; and `CN(C(=O)[C@H](O)Cc1ccc(F)cc1)[C@@H](CC1CC1)C(=O)N1C[C@]2(C[C@H]1C#N)C(=O)Nc1ccccc12` [Example 423], with greater than 7.00; and `CC(C)C[C@@H](O)C(=O)N(C)[C@@H](CC1CC1)C(=O)N1C[C@]2(C[C@H]1C#N)C(=O)Nc1ccccc12` [Example 424], with greater than 7.00. With `[2H]C([2H])([2H])N(C(=O)[C@@H](O)c1ccccc1)[C@@H](CC(C)(C)C)C(=O)N1C[C@]2(C[C@H]1C#N)C(=O)Nc1ccccc12` [Example 427], the pEC50 under setting [1] was greater than 7.00. Turning to `[2H]C([2H])([2H])N(C(=O)[C@H](O)c1ccccc1)[C@@H](CC(C)(C)C)C(=O)N1C[C@]2(C[C@H]1C#N)C(=O)Nc1ccccc12` [Example 428], the pEC50 under setting [1] was greater than 7.00. Still for that read-out and setting: then `CC(C)C[C@@H](C(=O)N1C[C@]2(C[C@H]1C#N)C(=O)Nc1ccccc12)N(C(=O)C(F)(F)F)C(C)C` [Example 432], with less than 6.00. Turning to `CC(C)(C)C[C@H](NC(=O)Nc1ccccc1)C(=O)N1C[C@]2(C[C@H]1C#N)C(=O)Nc1ccccc12` [Example 435], under setting [1], the negative-log EC50 (pEC50) is greater than 7.00. The same measure, in the same setting: to `CC(C)(C)C[C@H](NC(=O)Nc1ccc(F)cc1F)C(=O)N1C[C@]2(C[C@H]1C#N)C(=O)Nc1ccccc12` [Example 436] belongs greater than 7.00. With `CC(C)(C)C[C@H](NC(=O)Nc1c(F)cccc1F)C(=O)N1C[C@]2(C[C@H]1C#N)C(=O)Nc1ccccc12` [Example 437], the pEC50 under setting [1] was greater than 7.00. For the compound `Cc1cccc(C)c1NC(=O)N[C@@H](CC(C)(C)C)C(=O)N1C[C@]2(C[C@H]1C#N)C(=O)Nc1ccccc12` [Example 438], the negative-log EC50 (pEC50) under setting [1] is greater than 7.00. Consider `CC(C)(C)C[C@H](NC(=O)Nc1ccc2ccccc2c1)C(=O)N1C[C@]2(C[C@H]1C#N)C(=O)Nc1ccccc12` [Example 439], for which, under setting [1], the pEC50 was greater than 7.00. Under setting [1], `CC(C)(C)C[C@H](NC(=O)NC1CCCCC1)C(=O)N1C[C@]2(C[C@H]1C#N)C(=O)Nc1ccccc12` [Example 440] had a pEC50 greater than 7.00.

For `CC(C)(C)C[C@H](NC(=O)Nc1ccc(F)cc1)C(=O)N1C[C@]2(C[C@H]1C#N)C(=O)Nc1ccccc12` [Example 441], the pEC50 under setting [1] is greater than 7.00.
